The NIST ThermoML archive (doi:10.1016/j.jct.2012.10.018)

Assay: mn = molality of the nth substance listed, in mol/kg
Conditions: 101 kPa, Liquid; for speed of sound: Sing-around technique in a fixed-path interferometer; for mass density: Vibrating tube method

NCC(=O)NCC(=O)O [glycylglycine] + O
Conditions	mass density, 293.15 K [kg/m3]	mass density, 298.15 K [kg/m3]	mass density, 303.15 K [kg/m3]	speed of sound, 293.15 K [m/s]	speed of sound, 298.15 K [m/s]	speed of sound, 303.15 K [m/s]
m1 = 0.0467	1000.84	999.656	998.24	1486.4	1500.5	1512.8
m1 = 0.103	1003.95	1002.74	1001.3	1491.2	1505.2	1517.2
m1 = 0.1479	1006.4	1005.17	1003.71	1495	1508.8	1520.7
m1 = 0.1998	1009.2	1007.93	1006.45	1499.3	1513	1524.8
m1 = 0.251	1011.92	1010.63	1009.13	1503.5	1517	1528.7
m1 = 0.2973	1014.35	1013.04	1011.52	1507.3	1520.6	1532.2
m1 = 0.347	1016.93	1015.59	1014.07	1511.3	1524.4	1536
m1 = 0.402	1019.73	1018.38	1016.83	1515.7	1528.7	1540.2
m1 = 0.4499	1022.14	1020.78	1019.21	1519.3	1532.3	1543.6

NCC(=O)NCC(=O)NCC(=O)O [glycylglycylglycine] + O
Conditions	mass density, 293.15 K [kg/m3]	mass density, 298.15 K [kg/m3]	mass density, 303.15 K [kg/m3]	mass density, 308.15 K [kg/m3]	speed of sound, 293.15 K [m/s]	speed of sound, 298.15 K [m/s]	speed of sound, 303.15 K [m/s]	speed of sound, 308.15 K [m/s]
m1 = 0.025	1000.18	999.002	997.591	995.964	1485.2	1499.3	1511.6	1522.2
m1 = 0.05	1002.1	1000.91	999.479	997.839	1487.9	1501.9	1514.1	1524.6
m1 = 0.075	1004	1002.79	1001.35	999.696	1490.5	1504.4	1516.5	1527
m1 = 0.0999	1005.88	1004.66	1003.2	1001.54	1493.1	1507	1518.9	1529.3
m1 = 0.1248	1007.76	1006.52	1005.05	1003.37	1495.6	1509.5	1521.3	1531.6
m1 = 0.15	1009.64	1008.38	1006.9	1005.21	1498.1	1511.8	1523.7	1533.9
m1 = 0.175	1011.5	1010.22	1008.72	1007.02	1500.6	1514.2	1526	1536.1
m1 = 0.1926	1012.79	1011.5	1010	1008.29	1502.3	1515.9	1527.7	1537.7
m1 = 0.2706	1018.47	1017.13	1015.58	1013.84	1509.7	1522.9	1534.4	1544.3

O [water] + NCC(=O)NCC(=O)NCC(=O)O
Conditions	mass density [kg/m3]
308.15 K, m2 = 0	994.08
